In PMC9518609, “Design and synthesis of new trimethoxylphenyl-linked combretastatin analogues loaded on diamond nanoparticles as a panel for ameliorated solubility and antiproliferative activity” (Journal of Enzyme Inhibition and Medicinal Chemistry, 2022):

Columns and labels:
Assay type in all cases: cell-based
caspase 3/7 = test: Caspase 3/7 green flow cytometry assay in MDA-MB-231 cells; settings: MDA-MB-231, at IC50, 24 h
Text: Further, it is important to check effector caspase 3/7. The cleavage of caspases is specifically responsible for programmed cell death and apoptosis. […] The results were shown in Figure 5 and the expression level of caspase 3/7 was increased when compared with no control cells.
Caspase 3/7 in MDA-MB-231 cells was detected using CellEvent® Caspase 3/7 Green Detection Flow Cytometry Assay Kit. Caspase 3/7 activity in the MDA-MB-231 cell line was detected in the presence of compounds 6 and 12 at their IC50 concentration (µM) using CellEvent® caspase 3/7 green detection flow cytometry assay kit according to the manufacturer’s directions. All experimental steps were conducted as reported earlier.
4.3.4.3. Caspase 3/7 assay for compounds 6 and 12
Caspase 3/7 in MDA-MB-231 cells was investigated using CellEvent® Caspase 3/7 Green Detection Flow Cytometry Assay Kit. Caspase 3/7 activity in MDA-MB-231 cell line was detected in the presence of compounds 6 and 12 at their IC50 concentration (µM) using CellEvent® caspase 3/7 green detection flow cytometry assay kit according to manufacturer’s directions. […] cells at a density of 2.5 × 10^5 per well were harvested and washed with ice cold PBS, and cell lysates were prepared and combined with reaction buffer and incubated with specific colorimetric substrates (Caspase 3/7 Detection Reagent) at 37 °C for 6 h. Detection reagent is composed of DNA binding dye conjugated to caspase 3 and caspase 7 recognition sequence (DEVD) by a short peptide linker. The released DNA binding dye binds DNA producing a bright and stable signal. Finally, the samples were analyzed at 488 nm in a BD FACS Calibur flow cytometer. All experiments were performed in triplicates.
Information Classification: General 4

MCF-10A = test: MTT cytotoxic activity against breast MCF-10A cell line; settings: MTT assay, 24 h treatment
Text: All the synthesised compounds were screened for their cytotoxic activity against breast MDA-MB-231 cancer cell line and compounds 6 and 12 against breast MCF-10A cell line taking CA-4 as a positive control for the analysis. The in vitro cytotoxicity results of the prepared compounds were systematised in Table 1. […] Structurally, the prepared molecules contain three structural variations; including rotatable hydrazide derivatives, the core exchange with imidazolone ring, and the ring expansion with triazinone motif. […] It is noticed that directly attached benzene ring to triazinone scaffold (compound 6) or bioisosteric group (thiazolyl ester) as in compound 12, may contribute to the astonishing cytotoxicity against breast MDA-MB-231 cancer cells.
Part I: Biological Studies
4.3. Biological evaluation
4.3.1. Cytotoxic activity evaluation
The cytotoxic actvity of the synthesized derivatives 2a-13e was measured in MDA-MB-231 breast cancer cell line and derivatives 6 and 12 in MCF-10A […].
Cell viability assay was assessed using MTT assay method. Cells at density of 1 x 104 were seeded in a 96-well plate at 37 °C for 24 h under 5% CO2. After incubation, the cells were treated with different concentrations of the test schiff bases 2a-13e and incubated for 24 h, then 20 µl of MTT solution at 5 mg/mL was applied and incubated for 4 h at 37 °C.
Dimethyl sulphoxide (DMSO) in volume of 100 µl was added to each well to dissolve the purple formazan that had formed. The color intensity of the formazan product, which represents the growth condition of the cells, is quantified by using an ELISA plate reader (EXL 800, USA) at 570 nm absorbance. […]
Compounds 6, 12 and CA-4 were evaluated for their tubulin inhibitory activity according to manufacturer’s instructions using # abcam Human Beta-tubulin simplestep ELISA Kit ab245722. MDA-MB-231 cells were trypsinized, counted and seeded at the 2 × 105 into 96-well micro titer plates. […]
(O.D.) was measured at 450±10 nm using microplate reader (Spectromax Plus 96 well plate […]

MDA-MB-231 cells = test: Cell cycle analysis by DNA flow cytometry; settings: MDA-MB-231, at IC50, 24 h; for %Pre-G1 (pre-G1 apoptosis): untreated control 1.99%; for %DIP G2/M (cells in G2/M phase): untreated control 5.64%
Procedure: Targeting the cell cycle division at distinct checkpoints of cancer cells has been identified as a promising strategy for cancer chemotherapy.
Cell cycle analysis in MDA-MB-231 cells was investigated using a fluorescent Annexin V-FITC/PI detection kit (BioVision EZCell™ Cell Cycle Analysis Kit Catalog #K920) by flow cytometry assay. All experimental steps were performed as reported earlier.
4.3.3. Cell cycle analysis of compound 6 and 12
Cell cycle analysis in MDA-MB-231 cells was investigated using fluorescent Annexin V-FITC/ PI detection kit (BioVision EZCellTM Cell Cycle Analysis Kit Catalog #K920) by flow cytometry assay. MDA-MB-231 cells at a density of 2 × 10^5 per well were harvested and washed twice in PBS. After that, the cells were incubated at 37 °C and 5% CO2. The […]
washed twice in PBS, fixed with 70% ethanol, rinsed again with PBS. Afterward, medium was stained with DNA fluorochrome PI for 15 min at 37 °C. […]
All experiments were done in triplicates. […]

| Compound | Casp3/7 (percentage of activated caspase 3/7) (caspase 3/7) [%] | increase in caspase 3/7 activation relative to untreated control (caspase 3/7) | IC50 (MCF-10A) [µM] | %Pre-G1 (pre-G1 apoptosis) (MDA-MB-231 cells) [%] | %DIP G2/M (cells in G2/M phase) (MDA-MB-231 cells) [%] | IC50 (MCF-10A; Homo sapiens, MCF-10A) [µM] |
| --- | --- | --- | --- | --- | --- | --- |
| ethyl 2-(2-(6-oxo-5-(3,4,5-trimethoxybenzylidene)-3–(3,4,5-trimethoxyphenyl)-5,6-dihydro-1,2,4-triazin-2(1H)-yl)thiazol-4-yl)acetate [Compound 12] | 7.51 | ~9.16 fold | 14.6 ± 1.96 | 29.81 | 26.75 |  |
| COc1cc(C=C2N=C(c3cc(OC)c(OC)c(OC)c3)N(c3ccccc3)NC2=O)cc(OC)c1OC [Compound 6, 2-phenyl-5-(3,4,5-trimethoxybenzylidene)-3-(3,4,5-trimethoxyphenyl)-1,2-dihydro-1,2,4-triazin-6(5H)-one] | 12.87 | about 15.70 fold |  | 43.50 | 35.09 | 19.5 ± 2.15 |
